Results: patent US9701680B2, “Pyrimidine and pyridine compounds and their usage” (HUTCHISON MEDIPHARMA LIMITED, priority 2013, dated 2017)
Like-named read-outs stand apart in the source and are kept apart here.

Tests used:
KG-1 = assay: Cellular Proliferation Assay (Cell Counting Kit-8), KG-1; format: cell-based; settings: Homo sapiens; KG-1 cells, 72 hours; read-out: KG1 IC50
Experimental: (§1) Example 26: Cellular Proliferation Assay
(§2) • 1. Cell Line • KG-1 (ATCC Accession No. CCL-246), • SNU-16 (ATCC Accession No. CRL-5974), • RT-112 (ECACC Accession No. 85061106) • 2. Assay Protocol • FGFR related cancer cell proliferation is measured in 96-well plates using Cell Counting Kit-8 (Dojindo CK04-13). • Seed 30000 cells/well of KG1, 5000 cells/well of SNU16, and 1000 cells/well of RT112 in a volume of 100 μL/well in growth media. • After 24 hours, dilute the test compound to 10, 3.3, 1.1, 0.37, 0.12, 0.04, 0.013, 0.004 μM, keeping the DMSO concentration at 5%. • Add 10 μL of 8-point compound series to the wells of culturing cells. • Incubate at 37° C. and 5% CO2 for 72 hours • Add 10 μL/well of CCkit8 and incubate at 37° C. and 5% CO2 for an hour • Detect the optical density of each well at 450 nm on Labsystems Multiskan K3. • 3. Data Analysis
(§3) [formula] Note: • ODcompound well represents the optical density of cells treated with compound. • ODcell well represents the optical density of cells without compounds treatment.(only 0.5% DMSO) • ODcontrol well represents the optical density of culture media background • IC50: determined with add-in software for Microsoft Excel, XLfit™ (version 2.0) from ID Business Solutions (Guildford, UK).

SNU-16 = assay: Cellular Proliferation Assay (Cell Counting Kit-8), SNU-16; format: cell-based; settings: Homo sapiens; SNU-16 cells, 72 hours
Experimental: as §1, §2, §3

RT-112 = assay: Cellular Proliferation Assay (Cell Counting Kit-8), RT-112; format: cell-based; settings: Homo sapiens; RT-112 cells, 72 hours
Experimental: as §1, §2, §3

Recombinant human FGFR1 = Recombinant human FGFR1 (Homo sapiens, UniProt P11362); assay: Transcreener Kinase Assay of FGFR1; format: biochemical
Experimental: (§4) • 1. […] Prepare Solution • Test compounds were solved in DMSO and were diluted with assay buffer to 5 folds of final concentration keeping the DMSO concentration at 5%. Further dilution are needed to make final concentrations are at 1, 0.33, 0.11, 0.037, 0.012, 0.004, 0.0014, 0.0005 μM; (the final concentration of DMSO is 1%). • Enzyme/Substrate stock Preparation: Recombinant human FGFR1 and Poly E4Y are both diluted in assay buffer.
• 3. Enzymatic Reaction • In a 96-well plate, add 5 μL of diluted solution of test compound or control solution. (positive control: 5 μL of 5% DMSO; negative control: 5 μL of 500 mM EDTA) into desired wells respectively; • Add 10 μL of Enzyme/Substrate stock into each well; • Add 10 μL of ATP Diluents to initiate the enzyme reaction and vortex the plate immediately on a plate shaker; • For the wells to make standard curve, add 5 μL of 5% DMSO, 10 μL of assay buffer and 10 μL of ATP standard curve stock. • Incubate the plate for 45 min at 28° C. on a plate shaker in a low speed. • 4. […] Excitation wavelength: 610 nm, Emission wavelength: 670 nm. • 5. Data Analysis
(§5) [formula] Note: • [ADP] in Compound well represents the ADP concentration in test compound well. • [ADP] in Positive control well represents the ADP concentration in 5% DMSO well • Conversion of mP value to ADP concentration is calculated based on the formula which determined by standard curve. And mP value is measured by following the instruction provided by BellBrook Labs. (www.bellbrooklabs.com). • 6. IC50: determined with add-in software for Microsoft Excel, XLfit™ (version 2.0) from ID Business Solutions (Guildford, UK).

Recombinant human FGFR2 = Recombinant human FGFR2 (Homo sapiens, UniProt P21802); assay: Transcreener Kinase Assay of FGFR2; format: biochemical
Experimental: Example 24: Transcreener Kinase Assay of FGFR2
as §4, with “FGFR2” for “FGFR1”, “buffer. The final concentration is 0.3 ng/μL for FGFR2 and 62.5 ng/μL for Poly E4Y. The mixture is being kept in ice before use; • Prepare ATP Diluents, 10 mM ATP is diluted in assay buffer, the final concentration is 25 μM; • Prepare ADP Diluents: diluted ADP (500 μM) in assay buffer, the final concentration is 25 μM; • Prepare ATP standard curve stock as following:” for “buffer.”
• 3. Enzymatic Reaction • In a 96-well plate, add 5 μL of deluted solution of test compound or control solution. (positive control: 5 μL of 5% DMSO; negative control: 5 μL of 500 mM EDTA) into desired wells respectively; • Add 10 μL of Enzyme/Substrate stock into each well; • Add 10 μL of ATP Diluents to initiate the enzyme reaction and vortex the plate immediately on a plate shaker; • For the wells to make standard curve, add 5 μL of 5% DMSO, 10 μL of assay buffer and 10 μL of ATP standard curve stock. • Incubate the plate for 45 min at 28° C. on a plate shaker in a low speed. • 4. Stoping Reaction and Detecting ADP • Detection Mix Preparation: The mixture is made by dilution with MilliQ water; as following: ADP Alexa633 tracer (1:100), ADP antibody (1:158), and stop & detect buffer (1:10); • Tracer Only control Preparation: The mixture is made by dilution with MilliQ water; as following: ADP Alexa633 tracer (1:100), and stop & detect buffer (1: 10) • No Tracer control Preparation: stop & detect buffer is diluted with MilliQ water; by 10 fold. • Add 25 μL of detection mix, Tracer Only control and No Tracer control into corresponding wells, respectively; • Incubate at 28° C. for 1 h, on a plate shaker in a low speed; • Measure florescence polarization (mP) on TECAN F500. Excitation wavelength: 610 nm, Emission wavelength: 670 nm. • 5. Data Analysis
as §5

FGFR3 kinase = FGFR3 kinase (Homo sapiens, UniProt P22607); assay: Z-Lyte Kinase Assay of FGFR3; format: biochemical
Experimental: Example 25: Z-Lyte Kinase Assay of FGFR3
• 1. Materials and Reagents:
• 2. Reaction Steps: Plate Map
• 3. […] The final concentrations are 1, 0.33, 0.11, 0.037, 0.012, 0.004, 0.0014, 0.00046 μM, and the final concentration of DMSO is 2%. • 3) Kinase/Peptide Mixture (P/K solution): Prepare Kinase/Peptide Mixture by diluting the kinase to 0.7 μg/ml and the Z-LYTE™ Tyr 4 peptide to 4 μM in 1.33× Kinase Buffer. Mix gently by pipetting. • 4) Phospho-peptide Solution (PP solution): Add 0.4 μl of Z-LYTE™ Tyr 4 Phospho-peptide to 99.6 μl of 1.33× Kinase Buffer. • 5) ATP Solution: Prepare ATP Solution by diluting the 10 mM of ATP in 1.33× Kinase Buffer to 300 uM. • 6) Development Solution: Dilute Development Reagent B with Development Buffer as 1:128. • 4. […] Shake the plate for 30 Sec and centrifuge (1500 rpm, 1 min). • Seal the plate to protect from the light and incubate the plate for 1 hour at RT (25-30° C.). • 2) Development reaction • Add 5 μl of the Development solution to all wells. • Shake the plate for 30 Sec and centrifuge (1500 rpm, 1 min). • Seal the plate to protect from the light and incubate the plate for 1 hour at RT (25-30° C.). • 3) Stop and Read • Add 5 μl of the Stop reagent to all wells. • Shake the plate for 30 Sec and centrifuge (1500 rpm, 1 min). • Measure the value of Coumarin (Ex400 nm, Em445 nm) and fluorescein (Ex400 nm, Em520 nm), respectively. • 5. Data Analysis Emission Ratio(ER)=Coumarin Emission (445 nm)/Fluorescein Emission (520 nm) % Phosphorylation=1−[ER×C3520nm-C3445nm]/[(C1445nm-C3445nm)+ER×(C3520nm−C1520nm)] Inhibition rate (IR)=1−% Photest Cpd/% PhoC2 • 6. IC50 Value: determined with add-in software for Microsoft Excel, XLfit™ (version 2.0) from ID Business Solutions (Guildford, UK)

Chain of FGFR3 kinase (P22607 23-806): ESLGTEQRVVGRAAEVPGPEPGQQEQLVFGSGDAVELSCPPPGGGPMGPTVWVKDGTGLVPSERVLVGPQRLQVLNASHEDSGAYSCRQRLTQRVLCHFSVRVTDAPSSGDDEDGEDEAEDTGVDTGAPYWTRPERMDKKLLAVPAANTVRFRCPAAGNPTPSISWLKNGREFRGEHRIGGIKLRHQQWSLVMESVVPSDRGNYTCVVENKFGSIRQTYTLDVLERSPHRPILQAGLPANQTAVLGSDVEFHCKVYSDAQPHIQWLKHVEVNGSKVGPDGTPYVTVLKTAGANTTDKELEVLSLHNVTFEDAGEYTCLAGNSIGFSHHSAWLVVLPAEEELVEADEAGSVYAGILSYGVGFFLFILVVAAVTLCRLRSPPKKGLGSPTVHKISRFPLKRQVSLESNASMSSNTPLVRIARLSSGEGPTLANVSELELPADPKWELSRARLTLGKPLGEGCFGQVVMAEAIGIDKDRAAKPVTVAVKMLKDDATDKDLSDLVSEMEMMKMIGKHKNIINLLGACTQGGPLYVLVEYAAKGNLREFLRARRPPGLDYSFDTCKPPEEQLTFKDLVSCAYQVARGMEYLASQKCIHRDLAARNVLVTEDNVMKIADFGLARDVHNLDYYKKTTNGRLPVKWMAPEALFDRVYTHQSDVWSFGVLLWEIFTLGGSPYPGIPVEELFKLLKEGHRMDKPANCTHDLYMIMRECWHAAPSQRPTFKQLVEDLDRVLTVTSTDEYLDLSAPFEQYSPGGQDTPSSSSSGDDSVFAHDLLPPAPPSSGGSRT
Chain of Recombinant human FGFR1 (P11362 22-822): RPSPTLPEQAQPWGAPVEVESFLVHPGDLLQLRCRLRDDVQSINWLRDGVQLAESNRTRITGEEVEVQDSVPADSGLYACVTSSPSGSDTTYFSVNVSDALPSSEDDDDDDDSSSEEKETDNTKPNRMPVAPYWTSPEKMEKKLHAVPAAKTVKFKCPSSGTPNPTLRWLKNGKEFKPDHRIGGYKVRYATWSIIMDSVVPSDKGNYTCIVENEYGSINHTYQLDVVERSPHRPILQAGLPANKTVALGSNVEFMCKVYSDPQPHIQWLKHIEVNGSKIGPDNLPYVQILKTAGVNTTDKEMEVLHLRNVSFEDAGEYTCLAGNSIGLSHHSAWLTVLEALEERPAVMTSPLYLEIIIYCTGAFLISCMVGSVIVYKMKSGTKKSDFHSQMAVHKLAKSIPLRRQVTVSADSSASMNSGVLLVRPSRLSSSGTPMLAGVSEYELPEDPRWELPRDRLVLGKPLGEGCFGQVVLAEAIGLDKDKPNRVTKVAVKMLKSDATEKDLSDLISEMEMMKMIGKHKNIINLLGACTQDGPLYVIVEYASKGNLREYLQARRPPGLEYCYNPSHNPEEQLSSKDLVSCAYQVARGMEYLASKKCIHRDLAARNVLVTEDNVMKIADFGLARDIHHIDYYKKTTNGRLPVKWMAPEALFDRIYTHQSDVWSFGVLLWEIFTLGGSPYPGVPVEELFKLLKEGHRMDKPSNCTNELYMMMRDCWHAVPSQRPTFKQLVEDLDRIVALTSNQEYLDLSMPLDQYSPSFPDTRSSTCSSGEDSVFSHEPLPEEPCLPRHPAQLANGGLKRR
Chain of Recombinant human FGFR2 (P21802 22-821): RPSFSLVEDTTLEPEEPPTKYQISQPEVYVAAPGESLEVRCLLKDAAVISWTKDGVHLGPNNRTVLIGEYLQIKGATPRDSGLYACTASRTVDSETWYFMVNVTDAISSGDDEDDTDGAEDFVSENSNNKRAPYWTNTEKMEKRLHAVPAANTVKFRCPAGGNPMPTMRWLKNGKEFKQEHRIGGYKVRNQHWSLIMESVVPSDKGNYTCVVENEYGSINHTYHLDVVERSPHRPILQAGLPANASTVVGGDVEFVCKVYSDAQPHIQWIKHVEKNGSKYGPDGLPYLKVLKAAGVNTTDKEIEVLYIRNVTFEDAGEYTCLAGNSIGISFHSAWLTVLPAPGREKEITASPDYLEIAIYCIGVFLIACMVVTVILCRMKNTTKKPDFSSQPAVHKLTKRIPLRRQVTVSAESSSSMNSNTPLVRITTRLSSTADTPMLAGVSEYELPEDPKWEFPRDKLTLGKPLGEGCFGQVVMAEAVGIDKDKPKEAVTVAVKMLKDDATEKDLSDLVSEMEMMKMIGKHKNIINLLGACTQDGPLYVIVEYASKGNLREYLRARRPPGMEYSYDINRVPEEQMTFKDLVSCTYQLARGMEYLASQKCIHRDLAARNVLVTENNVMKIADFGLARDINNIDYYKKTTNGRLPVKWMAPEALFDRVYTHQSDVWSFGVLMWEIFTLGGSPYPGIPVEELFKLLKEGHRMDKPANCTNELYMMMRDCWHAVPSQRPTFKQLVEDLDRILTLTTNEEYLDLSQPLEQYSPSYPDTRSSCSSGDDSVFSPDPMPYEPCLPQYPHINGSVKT

| SMILES | IC50 (KG-1) [nM] | IC50 (SNU-16) [nM] | IC50 (RT-112) [nM] | IC50 (Recombinant human FGFR1; read-out: FGFR1 (FP) IC50) [nM] | IC50 (Recombinant human FGFR2; read-out: FGFR2 (FP) IC50) [nM] | IC50 (FGFR3 kinase) [nM] | IC50 (Recombinant human FGFR1; FP) [nM] | IC50 (Recombinant human FGFR2; FP) [nM] | IC50 (FGFR3 kinase; Z-lyte) [nM] |
| --- | --- | --- | --- | --- | --- | --- | --- | --- | --- |
| CNC(=O)c1cc(COc2cnc(Nc3ccc(N4C[C@@H](C)N[C@@H](C)C4)nc3)nc2)c(F)c(OC)c1 [Compound 257] | 103 |  |  |  |  |  |  |  |  |
| CNC(=O)c1cc(COc2cnc(Nc3ccc([C@@H]4CCCNC4)nc3)nc2)c(Cl)c(OC)c1 [Compound 244] | 362 | 115 | 585 | 10 | 10 | 13 |  |  |  |
| CCN(CC)CCn1cc(Nc2ncc(OCc3c(F)c(OC)cc(C(=O)NC)c3F)cn2)cn1 [Compound 251] | 31 | 41 | 87 | 25 | 23 | 24 |  |  |  |
| CNC(=O)c1cc(CCc2cnc(Nc3ccc(NC[C@@H](C)N)cc3)nc2)c(Cl)c(OC)c1 [Compound 92] | 90 | 32 | 87 | 8 | 8 | 10 |  |  |  |
| CCN1CCN(c2ccc(Nc3ncc(OCc4cc(C(=O)NC)cc(OC)c4Cl)cn3)cn2)CC1 [Compound 272] | 18 | 15 | 31 | 10 | 9 | 8 |  |  |  |
| CNC(=O)c1cc(COc2cnc(Nc3cnc(N4C[C@@H](C)N[C@@H](C)C4)c(F)c3)nc2)c(Cl)c(OC)c1 [Compound 292] | 46 | 17 | 70 |  |  |  | 13 | 11 | 14 |
| CCOc1cc(CCc2cnc(Nc3ccc(N4CCN(CC)CC4)cc3)nc2)cc(C(=O)NOC)c1 [Compound 50] | 387 | 581 |  |  |  |  |  |  |  |
| CNC(=O)c1cc(COc2cnc(Nc3cnn(C[C@H](O)CO)c3)nc2)c(F)c(OC)c1 [Compound 220] |  |  |  | 17 | 10 | 8 |  |  |  |
| CCN1CCN(c2ccc(Nc3ncc(CCc4cc(C(=O)NC)cc(OC)c4F)cn3)cc2OC)CC1 [Compound 157] |  |  |  | 7 | 5 | 6 |  |  |  |
| CNC(=O)c1cc(CCc2cnc(Nc3cnn([C@H]4CCOC4)c3)nc2)c(F)c(OC)c1 [Compound 137] |  | 18 |  | 9 | 5 | 13 |  |  |  |
| CCn1cc(Nc2ncc(/C=C/c3cc(C(=O)NC)cc(OC)c3Br)cn2)cn1 [Compound 3] |  |  |  | 28 | 28 | 188 |  |  |  |
| CNC(=O)c1cc(COc2cnc(Nc3ccc(N4CCN(C5CC5)CC4)c(OC)c3)nc2)c(F)c(OC)c1 [Compound 294] |  |  |  |  |  |  | 14 | 6 | 5 |
| CNC(=O)c1cc(COc2cnc(Nc3ccc(N4C[C@@H]5CCN(C)[C@@H]5C4)c(OC)c3)nc2)c(F)c(OC)c1 [Compound 293] |  |  |  |  |  |  | 18 | 8 | 11 |
| CNC(=O)c1cc(COc2cnc(Nc3ccc(C4CCNCC4)nc3)nc2)c(F)c(OC)c1 [Compound 236] |  |  |  | 28 | 14 | 9 |  |  |  |
| CNC(=O)c1cc(COc2cnc(Nc3ccc(C4CCNCC4)c(OC)c3)nc2)c(F)c(OC)c1 [Compound 258] |  |  |  | 28 | 15 | 17 |  |  |  |
| CNC(=O)c1cc(COc2cnc(Nc3cnn(C[C@@H](O)CO)c3)nc2)c(F)c(OC)c1 [Compound 219] |  |  |  | 14 | 10 | 8 |  |  |  |
| CNC(=O)c1cc(CCc2cnc(Nc3cccc(N4C[C@@H](C)N[C@@H](C)C4)c3)nc2)cc(OC)c1 [Compound 12] |  | 266 |  |  |  |  |  |  |  |
| CCN1CC[C@H](n2cc(Nc3ncc(CCc4cc(C(=O)NC)cc(OC)c4F)cn3)cn2)C1 [Compound 191] |  |  |  | 99 | 87 | 132 |  |  |  |
| CNC(=O)c1cc(CCc2cnc(Nc3cnn([C@@H]4CCOC4)c3)nc2)c(F)c(OC)c1 [Compound 136] | 29 |  | 166 | 10 | 7 |  |  |  |  |
| CNC(=O)c1cc(CCc2cnc(Nc3cnn(CC(F)(F)F)c3)nc2)c(F)c(OC)c1 [Compound 35] |  |  |  |  | 10 |  |  |  |  |
| CNC(=O)c1cc(COc2cnc(Nc3ccc(N4CCN(C5CCCC5)CC4)c(OC)c3)nc2)c(F)c(OC)c1 [Compound 302] |  |  |  |  |  |  | 12 | 7 | 9 |
